# Key:
# [1] = Normal tissue damage / cutaneous photosensitivity by ear swelling after irradiation; assay type: in vivo, mice; details: 0.88 μmol/kg; same light dose 24 h after drug injection
# Experimental: In a separate group of mice, the normal tissue damage was assessed by irradiating one ear with 40 Jcm^−2 of broad spectrum white light delivered using a fibre bundle from the xenon light source. The incident power at the ear surface was 638 mWcm^−2 and light was applied for 63 s. Animal ears were irradiated with light 24 h after administration of N-Me-NC-m-THPP. The opposing ear served as a control. The response was assessed twenty-four hours after irradiation by measuring the ear thickness at three sites on the upper third of the ear using a fixed-force micrometer with a vernier-interpolated resolution of 2 μm and an accuracy of 10 μm (Neill instruments).
# syngeneic colo26 tumour = details: m-THPP dose of 1.61 μmol/kg; light at 652 nm; Berenbaum et al. 1993; cited from earlier work
Structure (SMILES),Ear Swelling (irradiated − control; μm) [1] [μm],tumour necrosis (literature) (syngeneic colo26 tumour) [mm]
"Oc1cccc(-c2c3nc(c(-c4cccc(O)c4)c4ccc([nH]4)c(-c4cccc(O)c4)c4nc(c(-c5cccc(O)c5)c5ccc2[nH]5)CC4)C=C3)c1 [m-THPC, tetra(3-hydroxyphenyl)dihydroporphyrin]",41,
Oc1cccc(-c2c3nc(c(-c4cccc(O)c4)c4ccc([nH]4)c(-c4cccc(O)c4)c4nc(c(-c5cccc(O)c5)c5ccc2[nH]5)C=C4)C=C3)c1 [m-THPP],,0.14
